What was measured:
mouse = details: Carcinogenicity; cd1; Oral; Feed; dose end: 97 week; group: cholinesterase; cholinesterase / cholinesterase / cholinesterase / erythrocyte cholinesterase (che) + cholinesterase / cholinesterase / cholinesterase / …
rat [1] = details: Prenatal developmental toxicity study, Oral, Gavage/Intubation, dose end: 15 GD, group: maternal
rat [2] = details: Multigenerational reproductive toxicity study, Crl: CD(SD) BRVAF/Plus, Oral, [Not Specified], dose end: 2 generation
dog [3] = details: Subchronic oral toxicity in nonrodent, beagle, Feed, dose end: 90 day, group: cholinesterase, cholinesterase / cholinesterase / cholinesterase / plasma cholinesterase (che)
rat [4] = details: Combined chronic toxicity/carcinogenicity; fischer; Oral; Feed; dose end: 105 week; group: cholinesterase; cholinesterase / cholinesterase / cholinesterase / erythrocyte cholinesterase (che) + cholinesterase / cholinesterase / cholinesterase / …
dog [5] = details: Subchronic oral toxicity in nonrodent, beagle, Feed, dose end: 26 week
rat [6] = details: Fertility (Segment I); Oral; Gavage/Intubation; dose end: 1 generation; group: parental; systemic / in life observation / clinical signs / alopecia + systemic / in life observation / clinical signs / respiration (rales) + …
rat [7] = details: Chronic toxicity, Oral, Feed, dose end: 182 day, group: systemic
rat [8] = details: Fertility (Segment I), Oral, Gavage/Intubation, dose end: 1 generation, group: parental
rat [9] = details: Sub-acute repeat dose toxicity, wistar, Oral, Gavage/Intubation, dose end: 14 day, group: systemic
rat [10] = details: Sub-acute repeat dose toxicity; wistar; Oral; Feed; dose end: 14 day; group: systemic; systemic / hematology / leukocyte (wbc) count differential / leukocyte (wbc) + systemic / hematology / lymphocyte / lymphocyte + systemic / …
dog [11] = details: Chronic toxicity; beagle; Oral; Gavage/Intubation; dose end: 364 day; group: systemic; systemic / organ weight / liver / absolute + systemic / pathology microscopic / testes / cellular alteration + systemic / pathology …
dog [12] = details: Sub-acute repeat dose toxicity, beagle, Oral, Gavage/Intubation, dose end: 14 day, group: systemic
rat [13] = details: Chronic toxicity, wistar, Oral, Feed, dose end: 182 day, group: systemic
rabbit [14] = details: Prenatal developmental toxicity study, Oral, Gavage/Intubation, dose end: 19 GD
rat [15] = details: Prenatal developmental toxicity study, Oral, Gavage/Intubation, dose end: 18 GD
dog [16] = details: Chronic toxicity; beagle; Oral; Gavage/Intubation; dose end: 364 day; group: systemic; systemic / organ weight / liver / absolute + systemic / pathology microscopic / testes / cellular alteration + systemic / pathology …; remark: listed apart in the source
dog [17] = details: Sub-acute repeat dose toxicity; beagle; Oral; Gavage/Intubation; dose end: 4 day; group: systemic; systemic / in life observation / clinical signs / erythema + systemic / in life observation / clinical signs / reduced activity + systemic…
primate [18] = details: Sub-acute repeat dose toxicity, marmoset, Oral, Gavage/Intubation, dose end: 4 day, group: systemic
dog [19] = details: Sub-acute repeat dose toxicity; beagle; Oral; Gavage/Intubation; dose end: 4 day; group: systemic; systemic / clinical chemistry / [other] / [other] + systemic / clinical chemistry / apolipoprotein a1 / apolipoprotein a1 + systemic / …
rat [20] = details: Subchronic oral toxicity in rodents, wistar, Gavage/Intubation, dose end: 91 day, group: systemic
primate [21] = details: Subchronic oral toxicity in nonrodent, Gavage/Intubation, dose end: 91 day, group: systemic, systemic / in life observation / clinical signs / emesis
rat [22] = details: Sub-acute repeat dose toxicity; Oral; Gavage/Intubation; dose end: 5 day; group: systemic; systemic / in life observation / clinical signs / arrhythmia + systemic / in life observation / clinical signs / dehydration + systemic / in…
rabbit [23] = details: Sub-acute repeat dose toxicity, Oral, Gavage/Intubation, dose end: 5 day, group: systemic
[24] = systemic / in life observation / body weight / body weight + systemic / in life observation / food consumption / food consumption
[25] = group: offspring, systemic / in life observation / body weight / offspring (pup) weight + systemic / in life observation / body weight / offspring (pup) …
[26] = group: parental, systemic / in life observation / body weight / body weight + systemic / in life observation / body weight / body weight gain + systemic / in…
[27] = group: reproductive, reproductive / reproductive performance / implantations / implantations
[28] = group: cholinesterase, cholinesterase / cholinesterase / cholinesterase / plasma cholinesterase (che) + cholinesterase / cholinesterase / cholinesterase / …
[29] = group: systemic, systemic / hematology / erythrocyte (rbc) count differential / erythrocyte (rbc) + systemic / hematology / hemoglobin (hgb) / hemoglobin (…
[30] = systemic / clinical chemistry / albumin-globulin ratio / albumin-globulin ratio + systemic / clinical chemistry / glucose / glucose + …
[31] = systemic / pathology gross / uterus / cyst + systemic / pathology microscopic / uterus / cyst + systemic / organ weight / testes / absolute…
[32] = systemic / in life observation / body weight / body weight gain + systemic / in life observation / clinical signs / abnormal feces + …
[33] = systemic / pathology microscopic / testes / dilatation
[34] = systemic / clinical chemistry / cytochrome p450, nos / cytochrome p450, nos
[35] = systemic / clinical chemistry / cytochrome p450, nos / cytochrome p450, nos + systemic / clinical chemistry / urea nitrogen / urea nitrogen…
[36] = systemic / clinical chemistry / [other] / [other] + systemic / clinical chemistry / alanine aminotransferase (alt/sgpt) / alanine …
[37] = systemic / pathology gross / full gross necropsy / rhabdomyosarcoma + systemic / clinical chemistry / albumin-globulin ratio / albumin-…
[38] = group: developmental, systemic / in life observation / body weight / fetal weight
[39] = group: maternal, systemic / in life observation / body weight / body weight
[40] = group: developmental, developmental / developmental malformation / bone / [other] + developmental / developmental malformation / bone / delayed ossification + …
[41] = group: maternal, systemic / in life observation / body weight / body weight + systemic / in life observation / body weight / body weight gain + systemic / in…
[42] = systemic / in life observation / clinical signs / defecation (diarrhea) + systemic / pathology microscopic / salivary glands / degeneration…
[43] = systemic / pathology microscopic / salivary glands / degeneration + systemic / hematology / fibrinogen / fibrinogen + systemic / pathology …
[44] = systemic / in life observation / body weight / body weight + systemic / in life observation / clinical signs / abnormal feces + systemic / …
[45] = systemic / pathology microscopic / intestine large / hyperplasia + systemic / pathology microscopic / stomach / hyperplasia
[46] = systemic / in life observation / body weight / body weight + systemic / in life observation / clinical signs / abnormal respiratory sounds…
[47] = systemic / in life observation / clinical signs / nasal discharge + systemic / in life observation / food consumption / food consumption

Structure (SMILES): CCCSP(=O)(OCC)Oc1ccc(Br)cc1Cl (stereo unspecified) [Profenofos]
- LEL (mouse): 4.54 mg/kg/day
- LOAEL (mouse): 4.54 mg/kg/day
- NEL (mouse): 0.14 mg/kg/day
- NOAEL (mouse): 0.14 mg/kg/day
- LOAEL (rat [1]; [24]): 60 mg/kg/day
- NEL (rat [1]; [24]): 10 mg/kg/day
- NOAEL (rat [1]; [24]): 30 mg/kg/day
- LEL (rat [1]; systemic / in life observation / food consumption / food consumption): 30 mg/kg/day
- LEL (rat [2]; [25]): 29 mg/kg/day
- LOAEL (rat [2]; [25]): 29 mg/kg/day
- NEL (rat [2]; [25]): 7.3 mg/kg/day
- NOAEL (rat [2]; [25]): 7.3 mg/kg/day
- LEL (rat [2]; [26]): 29 mg/kg/day
- LOAEL (rat [2]; [26]): 29 mg/kg/day
- NEL (rat [2]; [26]): 7.3 mg/kg/day
- NOAEL (rat [2]; [26]): 7.3 mg/kg/day
- LEL (rat [2]; [27]): 29 mg/kg/day
- LOAEL (rat [2]; [27]): > 29 mg/kg/day
- NEL (rat [2]; [27]): 7.3 mg/kg/day
- NOAEL (rat [2]; [27]): ≥ 29 mg/kg/day
- LEL (dog [3]): 0.05 mg/kg/day
- LOAEL (dog [3]): 0.05 mg/kg/day
- NEL (dog [3]): < 0.05 mg/kg/day
- NOAEL (dog [3]): < 0.05 mg/kg/day
- LEL (rat [4]): 1 mg/kg/day
- LOAEL (rat [4]): 1 mg/kg/day
- NEL (rat [4]): 0.03 mg/kg/day
- NOAEL (rat [4]): 0.03 mg/kg/day
- NOAEL (dog [5]; group: cholinesterase, cholinesterase / cholinesterase / cholinesterase / plasma cholinesterase (che) + cholinesterase / cholinesterase / cholinesterase / brain …): 0.005 mg/kg/day
- LEL (dog [5]; [28]): 0.005 mg/kg/day
- LOAEL (dog [5]; [28]): 0.05 mg/kg/day
- NEL (dog [5]; [28]): < 0.005 mg/kg/day
- LEL (dog [5]; [29]): 12.5 mg/kg/day
- LOAEL (dog [5]; [29]): > 12.5 mg/kg/day
- NEL (dog [5]; [29]): 2.5 mg/kg/day
- NOAEL (dog [5]; [29]): ≥ 12.5 mg/kg/day

Structure (SMILES): CCc1cc(C2=C(C(=O)O)N(c3ccccc3C(F)(F)F)S(=O)(=O)c3ccccc32)cc2c1OCO2 [Fandosentan]
- LEL (rat [6]): 25 mg/kg/day
- LOAEL (rat [6]): > 250 mg/kg/day
- NEL (rat [6]): < 25 mg/kg/day
- NOAEL (rat [6]): ≥ 250 mg/kg/day
- LOAEL (rat [7]; [30]): > 300 mg/kg/day
- NOAEL (rat [7]; [30]): ≥ 300 mg/kg/day
- LEL (rat [7]; [31]): 75 mg/kg/day
- NEL (rat [7]; [31]): < 75 mg/kg/day
- LOAEL (rat [8]; [32]): > 250 mg/kg/day
- NOAEL (rat [8]; [32]): ≥ 250 mg/kg/day
- LEL (rat [8]; [33]): 25 mg/kg/day
- NEL (rat [8]; [33]): < 25 mg/kg/day
- LEL (rat [9]; [34]): 100 mg/kg/day
- NEL (rat [9]; [34]): < 100 mg/kg/day
- LOAEL (rat [9]; [35]): > 500 mg/kg/day
- NOAEL (rat [9]; [35]): ≥ 500 mg/kg/day
- LEL (rat [10]): 100 mg/kg/day
- LOAEL (rat [10]): > 750 mg/kg/day
- NEL (rat [10]): < 100 mg/kg/day
- NOAEL (rat [10]): ≥ 750 mg/kg/day
- LEL (dog [11]): 10 mg/kg/day
- LOAEL (dog [11]): > 100 mg/kg/day
- NEL (dog [11]): < 10 mg/kg/day
- NOAEL (dog [11]): ≥ 100 mg/kg/day
- LOAEL (dog [12]; [36]): > 200 mg/kg/day
- NOAEL (dog [12]; [36]): ≥ 200 mg/kg/day
- LEL (dog [12]; systemic / in life observation / clinical signs / defecation (diarrhea) + systemic / clinical chemistry / [other] / [other] + systemic / …): 30 mg/kg/day
- LOAEL (rat [13]; [37]): > 300 mg/kg/day
- NOAEL (rat [13]; [37]): ≥ 300 mg/kg/day
- LEL (rat [13]; [31]): 75 mg/kg/day
- NEL (rat [13]; [31]): < 75 mg/kg/day
- LEL (rabbit [14]; [38]): 50 mg/kg/day
- LOAEL (rabbit [14]; [38]): > 50 mg/kg/day
- NOAEL (rabbit [14]; [38]): ≥ 50 mg/kg/day
- LEL (rabbit [14]; [39]): 50 mg/kg/day
- LOAEL (rabbit [14]; [39]): > 50 mg/kg/day
- NEL (rabbit [14]; [39]): 25 mg/kg/day
- NOAEL (rabbit [14]; [39]): ≥ 50 mg/kg/day
- LOAEL (rat [15]; [40]): > 250 mg/kg/day
- NOAEL (rat [15]; [40]): ≥ 250 mg/kg/day
- LEL (rat [15]; group: developmental, developmental / developmental malformation / bone / [other] + developmental / developmental malformation / face / [other] + developmental / …): 100 mg/kg/day
- LEL (rat [15]; [41]): 250 mg/kg/day
- LOAEL (rat [15]; [41]): > 250 mg/kg/day
- NOAEL (rat [15]; [41]): ≥ 250 mg/kg/day
- LEL (dog [16]): 10 mg/kg/day
- LOAEL (dog [16]): > 100 mg/kg/day
- NEL (dog [16]): < 10 mg/kg/day
- NOAEL (dog [16]): ≥ 100 mg/kg/day

Structure (SMILES): Nc1cc2c3c(c1)C(c1ccccc1)=N[C@@H](NC(=O)c1cccnc1)C(=O)N3CC2 [CI-1044]
- LEL (dog [17]): 50 mg/kg/day
- LOAEL (dog [17]): > 50 mg/kg/day
- NEL (dog [17]): < 50 mg/kg/day
- NOAEL (dog [17]): ≥ 50 mg/kg/day
- LOAEL (primate [18]; [42]): > 320 mg/kg/day
- NOAEL (primate [18]; [42]): ≥ 320 mg/kg/day
- LEL (primate [18]; [43]): 80 mg/kg/day
- NEL (primate [18]; [43]): < 80 mg/kg/day
- LEL (dog [19]): 20 mg/kg/day
- LOAEL (dog [19]): > 20 mg/kg/day
- NEL (dog [19]): < 20 mg/kg/day
- NOAEL (dog [19]): ≥ 20 mg/kg/day
- LOAEL (rat [20]; [44]): > 25 mg/kg/day
- NOAEL (rat [20]; [44]): ≥ 25 mg/kg/day
- LEL (rat [20]; [45]): 3 mg/kg/day
- NEL (rat [20]; [45]): < 3 mg/kg/day
- LEL (primate [21]): 1 mg/kg/day
- LOAEL (primate [21]): > 15 mg/kg/day
- NEL (primate [21]): < 1 mg/kg/day
- NOAEL (primate [21]): ≥ 15 mg/kg/day
- LOAEL (rat [22]): > 50 mg/kg/day
- NEL (rat [22]): 10 mg/kg/day
- NOAEL (rat [22]): ≥ 50 mg/kg/day
- LOAEL (rabbit [23]; [46]): > 1000 mg/kg/day
- NOAEL (rabbit [23]; [46]): ≥ 1000 mg/kg/day
- LEL (rabbit [23]; [47]): 50 mg/kg/day
- NEL (rabbit [23]; [47]): < 50 mg/kg/day
